Key:
GLF_1777 (2KGR) [1] = test system: T1, GLF_1777 (2KGR); assay: NADH oxidation at […] nm, soluble cell extract of overexpressing strain; format: biochemical, Gluconobacter sp. CHM43; conditions: co-substrate 2KG; standard assay 10 mM K-2-ketogluconate, 50 mM Na-acetate pH 6.0, 25°C
T1 construct: untagged, full-length gene on plasmid pSKR57 in Gluconobacter sp; CHM43 delta-GLF_0478 (strain SKR104)

GLF_1777 (2KGR) [2] = test system: T1, GLF_1777 (2KGR); assay: NADPH oxidation at […] nm, soluble cell extract of overexpressing strain; format: biochemical, Gluconobacter sp. CHM43; conditions: co-substrate 2KG; standard assay 10 mM K-2-ketogluconate, 50 mM Na-acetate pH 6.0, 25°C

SMILES	Km (GLF_1777 (2KGR) [1])	Km (GLF_1777 (2KGR) [2])
NC(=O)C1=CN([C@@H]2O[C@H](COP(=O)(O)OP(=O)(O)OC[C@H]3O[C@@H](n4cnc5c(N)ncnc54)[C@H](O)[C@@H]3O)[C@@H](O)[C@H]2O)C=CC1 [NADH]	100 ± 9 µM	
NC(=O)C1=CN([C@@H]2O[C@H](COP(=O)(O)OP(=O)(O)OC[C@H]3O[C@@H](n4cnc5c(N)ncnc54)[C@H](OP(=O)(O)O)[C@@H]3O)[C@@H](O)[C@H]2O)C=CC1 [NADPH]		3 ± 0.4 µM

Source: paper PMC11837542, “Two NADPH-dependent 2-ketogluconate reductases involved in 2-ketogluconate assimilation in Gluconobacter sp. strain CHM43” (Applied and Environmental Microbiology, 2025)
